Patent US10905897B2, “Synergistic treatment methodologies using light therapy” (Neuro-Laser Foundation, Inc., priority 2016, dated 2021)

Experiments:
postconcussive symptoms = settings: patients with TBI; cited from earlier work
tau protein = settings: transgenic mice overexpressing tau, cited from earlier work
traumatic brain injury = settings: two large U.S. studies; cited from earlier work
post-concussive syndrome = settings: double-blind, placebo-controlled; cited from earlier work
[1] = system: nerves involved in polyneuropathy; assay: Polyneuropathy treatment: ketamine administration followed by infrared light, nerve conduction; assay type: in vivo, human; settings: then 810 nm and 980 nm light, 10.5 watts, continuous wave, 10 minutes, about 9-10 treatments
Text: In one embodiment, the inventive method can be employed to treat an exemplary case of polyneuropathy. In this example, a neurologist or other medical professional can conduct an EMG study (or other diagnostic procedure) to determine which nerve is involved, locate the distal portion of the nerve and the path through the body. Then, after the appropriate ketamine administration, as part of 910, the operator configures the system. For example, this can be accomplished by setting the wattage to 10.5 watts, setting the wavelengths to 810 nm and 980 nm, specifying continuous wave, setting duration at 10 minutes, and determining total joules to be about 6000. The operator would then activate the applicator over the nerve to be treated. Maintaining proximity and applying active circular techniques, the operator would move the applicator over the area of involvement, tracing the actual nerve or nerves involved. This might entail, for instance, moving from the hip down the leg to the foot, or from the hand up the arm to the shoulder. The active sweeping pattern is maintained throughout, while monitoring the temperature, light, duration and patient as well. The treatment is then reviewed with the patient and follow-up treatments are scheduled (usually approximately 9-10 treatments for this condition). […]

[2] = system: depressive symptoms and suicidal ideation; settings: single infusion; cited from earlier work
depression = assay: Clinical experience with ketamine treatment for depression; settings: extensive clinical experience

For `C[S+](CC[C@H](N)C(=O)O)C[C@H]1O[C@@H](n2cnc3c(N)ncnc32)[C@H](O)[C@@H]1O` (some centres unmarked) [SAMe, S-adenosylmethionine], the “improvement in clinical scores of postconcussive symptoms” value (postconcussive symptoms) is given as 77%.
In the case of `[Cl-].[Li+]` [lithium chloride], the resulting blood levels (tau protein; dietary lithium chloride) is listed as ≤ 0.2 milli-Equivalents per liter and the “levels of tau protein accumulation upon pathological examination” value (tau protein) is listed as “significantly decreased”.
In the case of `C[N+](C)(C)CCOP(=O)(O)OP(=O)([O-])OC[C@H]1O[C@@H](n2ccc(N)nc2=O)[C@H](O)[C@@H]1O` [Citicholine], the “benefit in TBI” value (traumatic brain injury) is given as “failed to demonstrate significant benefit”.
In the case of `NC(=O)CN1CCCC1=O` [piracetam, Piracetam], the “symptoms of post-concussive syndrome, including headache and vertigo” value (post-concussive syndrome) is listed as “improved several symptoms”.
In the case of `CNC1(c2ccccc2Cl)CCCCC1=O` (centres unmarked) [ketamine], the “increase in the conduction velocity of the nerves involved” value [1] is given as 20-30%, the “duration of symptom relief with single infusions” value [2] is given as 4 to 10 days and the “patients treated for depression who see a favorable clinical response” value (depression) is given as “approximately 80%”.
